Key:
[1] = system: bedstraw; test: Test B pre/postemergence bedstraw; format: in vivo, Galium aparine; settings: for Bedstraw plant response rating (0 to 10 scale): 0 is no effect
Summary of the method: (§1)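 Herbicidal effect was estimated by eye on a ten-point control scale after plants spent twelve to sixteen days in a greenhouse following soil or foliar treatment. Foliar sprays targeted plants at one to four leaves; all doses were formulated in a non-phytotoxic solvent with surfactant.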

[2] = system: surinam grass; test: Test B pre/postemergence surinam grass; format: in vivo, Brachiaria decumbens; settings: for B. signalgrass plant response rating (0 to 10 scale): 0 is no effect
Summary of the method: as §1

[3] = system: wild oat; test: Test B pre/postemergence wild oat; format: in vivo, Avena fatua; settings: for Wild oats plant response rating (0 to 10 scale): 0 is no effect
Summary of the method: as §1

[4] = system: winter wheat; test: Test E winter wheat; format: in vivo, Triticum aestivum; settings: Postemergence; for Wheat (winter) plant response rating: 0 to 100 scale where 0 is no effect and 100 is complete control
Description: […] All plant species were grown using normal greenhouse practices. Crop and weed species include annual bluegrass (Poa annua), blackgrass (Alopecurus myosuroides), black nightshade (Solanum nigra), chickweed (Stellaria media), common poppy (Papaver rhoeas), deadnettle (Lamium amplexicaule), downy brome (Bromus tectorum), field violet (Viola arvensis), galium (Galium aparine), green foxtail (Setaria viridis), Italian ryegrass (Lolium multiflorum), jointed goatgrass (Aegilops cylindrica), kochia (Kochia scoparia), lambsquarters (Chenopodium album), littleseed canarygrass (Phalaris minor), rape (Brassica napus), redroot pigweed (Amaranthus retroflexus), Russian thistle (Salsola kali), scentless chamomile (Matricaria inodora), spring barley (Hordeum vulgare), sugar beet (Beta vulgaris), sunflower (Helianthus annuus), ivyleaf speedwell (Veronica hederaefolia), spring wheat (Triticum aestivum), winter wheat (Triticum aestivum), wild buckwheat (Polygonum convolvulus), wild mustard (Sinapis arvensis), wild oat (Avena fatua), windgrass (Apera spica-venti) and winter barley (Hordeum vulgare).
Treated plants and untreated controls were maintained in a greenhouse for approximately 21 to 28 days, after which all treated plants were compared to untreated controls and visually evaluated. […] A dash response (-) means no test result.

[5] = system: blackgrass; test: Test E blackgrass; format: in vivo, Alopecurus myosuroides; settings: Preemergence
[6] = system: green foxtail; test: Test E green foxtail; format: in vivo, Setaria viridis; settings: Preemergence
[7] = system: Italian ryegrass; test: Test E Italian ryegrass; format: in vivo, Lolium multiflorum; settings: Preemergence
[8] = system: winter wheat; test: Test E winter wheat; format: in vivo, Triticum aestivum; settings: Preemergence
[9] = system: wild oat; test: Test E wild oat; format: in vivo, Avena fatua; settings: Preemergence; for Plant response rating, Wild oat: 0 to 100 scale where 0 is no effect and 100 is complete control; for Wild oat plant response rating (0 to 100 scale): Rate 250 g/ha
[10] = system: winter barley; test: Test E winter barley; format: in vivo, Hordeum vulgare; settings: Preemergence
[11] = Postemergence, Rate 62 g/ha, scale 0 to 10, 0 is no effect, 10 is complete control
[12] = Preemergence, Rate 62 g/ha, scale 0 to 10, 0 is no effect, 10 is complete control
[13] = Preemergence, Rate 125 g/ha, scale 0 to 10 (0 no effect, 10 complete control)
[14] = Preemergence, Rate 250 g/ha, scale of 0 to 10 where 0 is no effect and 10 is complete control
[15] = Preemergence, Rate 500 g/ha, scale 0 (no effect) to 10 (complete control)
[16] = Rate 500 g/ha, Postemergence, 0 to 10 scale (0 no effect, 10 complete control)
[17] = Postemergence, Rate 250 g/ha, scale 0 to 10, 0 no effect, 10 complete control
[18] = Rate 125 g/ha, Postemergence, scale 0 to 10, 0 no effect, 10 complete control
[19] = Rate 1000 g/ha, 0 to 100 scale, 0 is no effect and 100 is complete control
[20] = Rate 500 g/ha, 0 to 100 scale, 0 no effect, 100 complete control
[21] = Rate 500 g/ha, 0 to 100 scale where 0 is no effect and 100 is complete control
[22] = Rate 1000 g/ha, 0 to 100 scale where 0 is no effect and 100 is complete control
[23] = Postemergence, Rate 125 g/ha, scale of 0 to 10 where 0 is no effect and 10 is complete control
[24] = Preemergence, Rate 62 g/ha, scale of 0 to 10 where 0 is no effect and 10 is complete control
[25] = Preemergence, Rate 125 g/ha, 10 is complete control
[26] = Preemergence, Rate 250 g/ha, scale 0 to 10, 0 is no effect, 10 is complete control
[27] = Preemergence, Rate 500 g/ha, scale 0 to 10 (0 no effect, 10 complete control)
[28] = Rate 62 g/ha, Postemergence, scale of 0 to 10 where 0 is no effect and 10 is complete control
[29] = Rate 250 g/ha, Postemergence, scale 0 to 10, 0 is no effect, 10 is complete control
[30] = Rate 500 g/ha, Postemergence, scale 0 to 10
[31] = Rate 500 g/ha, Postemergence, scale 0 to 10, 0 no effect, 10 complete control

Cc1ccc(N(C(=O)n2oc(=O)n(-c3ccccc3C)c2=O)C(C)C)cc1 [Compound 40]
Bedstraw plant response rating [1, 11]: 0 | Plant response rating, Bedstraw [1, 12]: 0 | Plant response rating, Bedstraw [1, 13]: 0 | Plant response rating, Bedstraw [1, 14]: 0 | Bedstraw plant response rating [1, 15]: 0 | Bedstraw plant response rating [1, 16]: 2 | B. signalgrass plant response rating [2, 11]: 0 | B. signalgrass plant response rating [2, 17]: 0 | Plant response rating, B. signalgrass [2, 12]: 0 | Plant response rating, B. signalgrass [2, 13]: 0 | Plant response rating, B. signalgrass [2, 14]: 5 | B. signalgrass plant response rating [2, 15]: 7 | B. signalgrass plant response rating [2, 18]: 0 | B. signalgrass plant response rating [2, 16]: 0 | Wild oats plant response rating [3, 11]: 0 | Wild oats plant response rating [3, 17]: 0 | Plant response rating, Wild oats [3, 13]: 0 | Plant response rating, Wild oats [3, 14]: 0 | Wild oats plant response rating [3, 15]: 5 | Wild oats plant response rating [3, 18]: 0 | Plant response rating, Wheat (winter) ([4]; Rate 250 g/ha, 0 to 100 scale (0 no effect, 100 complete control)): 0 | Plant response rating, Wheat (winter) [4, 19]: 0 | Plant response rating, Wheat (winter) [4, 20]: 0 | Plant response rating, Blackgrass ([5]; Rate 250 g/ha, 0 to 100 scale): 40 | Plant response rating, Blackgrass [5, 21]: 60 | Plant response rating, Blackgrass [5, 22]: 70 | Plant response rating, Green foxtail ([6]; Rate 250 g/ha, 0 to 100 scale): 70 | Plant response rating, Green foxtail [6, 21]: 90 | Plant response rating, Green foxtail [6, 22]: 90 | Plant response rating, I. Ryegrass ([7]; Rate 250 g/ha, 0 to 100 scale): 30 | Plant response rating, I. Ryegrass [7, 21]: 70 | Plant response rating, I. Ryegrass [7, 22]: 70 | Plant response rating, Wheat (winter) ([8]; Rate 250 g/ha, 0 to 100 scale): 20 | Plant response rating, Wheat (winter) [8, 21]: 30 | Plant response rating, Wheat (winter) [8, 22]: 40 | Plant response rating, Wild oat ([9]; Rate 500 g/ha): 50 | Plant response rating, Wild oat ([9]; Rate 1000 g/ha): 60 | Plant response rating, Barley (winter) ([10]; Rate 250 g/ha, 0 to 100 scale): 30 | Plant response rating, Barley (winter) [10, 21]: 40 | Plant response rating, Barley (winter) [10, 22]: 50

CC1CCCCC1n1c(=O)on(C(=O)N(c2ccccc2)C(C)C)c1=O (centres unmarked) [Compound 162]
Bedstraw plant response rating [1, 23]: 2 | Bedstraw plant response rating [1, 24]: 0 | Bedstraw plant response rating (0 to 10 scale) [1, 25]: 0 | Bedstraw plant response rating [1, 26]: 0 | Bedstraw plant response rating [1, 27]: 0 | Bedstraw plant response rating [1, 28]: 0 | Plant response rating, Bedstraw [1, 29]: 3 | Bedstraw plant response rating [1, 30]: 6 | B. signalgrass plant response rating [2, 23]: 0 | B. signalgrass plant response rating [2, 24]: 0 | B. signalgrass plant response rating (0 to 10 scale) [2, 25]: 2 | B. signalgrass plant response rating [2, 26]: 3 | B. signalgrass plant response rating [2, 27]: 7 | B. signalgrass plant response rating [2, 28]: 0 | Plant response rating, B. signalgrass [2, 29]: 0 | B. signalgrass plant response rating [2, 31]: 4 | Wild oats plant response rating [3, 24]: 0 | Wild oats plant response rating (0 to 10 scale) [3, 25]: 0 | Wild oats plant response rating [3, 26]: 2 | Wild oats plant response rating [3, 27]: 5 | Plant response rating, Wild oats [3, 29]: 0 | Wild oats plant response rating [3, 30]: 4 | Plant response rating, Wheat (winter) [4, 19]: 50 | Plant response rating, Wheat (winter) [4, 20]: 40 | Wheat (winter) plant response rating ([4]; Rate 250 g/ha): 30 | Blackgrass plant response rating (0 to 100 scale) ([5]; Rate 250 g/ha): 55 | Plant response rating, Blackgrass [5, 21]: 60 | Plant response rating, Blackgrass [5, 22]: 55 | Green foxtail plant response rating (0 to 100 scale) ([6]; Rate 250 g/ha): 60 | Plant response rating, Green foxtail [6, 21]: 65 | Plant response rating, Green foxtail [6, 22]: 85 | I. Ryegrass plant response rating (0 to 100 scale) ([7]; Rate 250 g/ha): 50 | Plant response rating, I. Ryegrass [7, 21]: 65 | Plant response rating, I. Ryegrass [7, 22]: 70 | Wheat (winter) plant response rating (0 to 100 scale) ([8]; Rate 250 g/ha): 30 | Plant response rating, Wheat (winter) [8, 21]: 15 | Plant response rating, Wheat (winter) [8, 22]: 40 | Wild oat plant response rating (0 to 100 scale) [9]: 50 | Plant response rating, Wild oat ([9]; Rate 500 g/ha): 50 | Plant response rating, Wild oat ([9]; Rate 1000 g/ha): 60 | Barley (winter) plant response rating (0 to 100 scale) ([10]; Rate 250 g/ha): 30 | Plant response rating, Barley (winter) [10, 21]: 30 | Plant response rating, Barley (winter) [10, 22]: 40

CC(C)N(C(=O)n1oc(=O)n([C@@H](C)c2ccccc2)c1=O)c1ccc(F)cc1 [Compound 167]
Bedstraw plant response rating [1, 23]: 0 | Bedstraw plant response rating [1, 24]: 0 | Bedstraw plant response rating (0 to 10 scale) [1, 25]: 0 | Bedstraw plant response rating [1, 26]: 3 | Bedstraw plant response rating [1, 27]: 5 | Bedstraw plant response rating [1, 28]: 0 | Plant response rating, Bedstraw [1, 29]: 8 | B. signalgrass plant response rating [2, 23]: 0 | B. signalgrass plant response rating [2, 24]: 2 | B. signalgrass plant response rating (0 to 10 scale) [2, 25]: 5 | B. signalgrass plant response rating [2, 26]: 5 | B. signalgrass plant response rating [2, 27]: 8 | B. signalgrass plant response rating [2, 28]: 0 | Plant response rating, B. signalgrass [2, 29]: 0 | B. signalgrass plant response rating [2, 31]: 0 | Wild oats plant response rating [3, 24]: 0 | Wild oats plant response rating (0 to 10 scale) [3, 25]: 0 | Wild oats plant response rating [3, 26]: 3 | Wild oats plant response rating [3, 27]: 6 | Plant response rating, Wild oats [3, 29]: 0 | Wild oats plant response rating [3, 30]: 0 | Plant response rating, Wheat (winter) [4, 19]: 50 | Plant response rating, Wheat (winter) [4, 20]: 40 | Wheat (winter) plant response rating ([4]; Rate 250 g/ha): 30 | Blackgrass plant response rating (0 to 100 scale) ([5]; Rate 250 g/ha): 50 | Plant response rating, Blackgrass [5, 21]: 60 | Plant response rating, Blackgrass [5, 22]: 80 | Green foxtail plant response rating (0 to 100 scale) ([6]; Rate 250 g/ha): 60 | Plant response rating, Green foxtail [6, 21]: 85 | Plant response rating, Green foxtail [6, 22]: 100 | I. Ryegrass plant response rating (0 to 100 scale) ([7]; Rate 250 g/ha): 30 | Plant response rating, I. Ryegrass [7, 21]: 65 | Plant response rating, I. Ryegrass [7, 22]: 80 | Wheat (winter) plant response rating (0 to 100 scale) ([8]; Rate 250 g/ha): 10 | Plant response rating, Wheat (winter) [8, 21]: 20 | Plant response rating, Wheat (winter) [8, 22]: 30 | Wild oat plant response rating (0 to 100 scale) [9]: 30 | Plant response rating, Wild oat ([9]; Rate 500 g/ha): 40 | Plant response rating, Wild oat ([9]; Rate 1000 g/ha): 50 | Barley (winter) plant response rating (0 to 100 scale) ([10]; Rate 250 g/ha): 40 | Plant response rating, Barley (winter) [10, 21]: 40 | Plant response rating, Barley (winter) [10, 22]: 20

Source: patent US6737383B1, “Herbicidal oxadiazolidines” (priority 1999, dated 2004)
